Experimental data from patent publication US10335409B2 (priority 2012, dated 2019).
Like-named read-outs stand apart in the source and are kept apart here.

Assays:
Type in all cases: cell-based, hepatitis C virus
[1] = system: genotype 1b NS3/4a protease inhibitor resistant variant D168A transient HCV replicon in Huh-7-derived cells; assay: Transient-transfected HCV replicon EC50, genotype 1b D168A; conditions: Hepatitis C virus, 72 h, read-out: EC50 1B D168A, transient-transfected replicon genotype 1b D168A resistant variant, 72 h
[2] = system: genotype 3a (S52) stable HCV replicon in Huh-7-derived cells; assay: Stable subgenomic HCV replicon EC50, genotype 3a (Renilla luciferase); conditions: Hepatitis C virus, 72 h, read-out: EC50 3A RLUC
Description: (§1) Antiviral potency (EC50) was determined in both stable subgenomic HCV replicon cell lines and transient-transfected HCV replicon cells. The term half maximal effective concentration (EC50) refers to the concentration of a drug which induces a response halfway between the baseline and maximum after the exposure time specified below.
(§2) Stable subgenomic HCV replicons for genotype 1a, 1b, 2a, 3a, and 4a were established in Huh-7-derived cells as described by Lohmann et al (Lohmann V, Korner F, Koch J, et al Replication of subgenomic hepatitis C virus RNAs in a hepatoma cell line. Science 1999; 285:119-3) Each stable cell line contains a bicistronic HCV replicon that encodes a humanized Renilla luciferase (hRLuc) reporter gene fused to a selectable neomycin-resistance gene, followed by an EMCV IRES and the NS3-NS5B coding region of HCV. […] Luciferase activity was measured as a marker for intracellular HCV replication levels.
(§3) The genotype 1a stable replicon was derived from the H77 HCV strain and contained adaptive mutations P1496L and S2204I. The genotype 1b stable replicon was derived from the Con1 HCV strain and contained adaptive mutations E1202G, T1280I and K1846T. […] The genotype 3a stable replicon was derived from the S52 HCV strain and contained adaptive mutations P1121L, A1198T and S2210I (equivalent to S2204I in genotype 1). The genotype 4a stable replicon was derived from the ED43 HCV strain and contained adaptive mutations Q1691R and S2204I. All replicon cell lines were propagated in Huh-7-derived cells and maintained in Dulbecco's modified Eagle's Medium (DMEM) supplemented with 10% fetal bovine serum (FBS) and 0.5 mg/mL G418.
(§4) To perform EC50 assays, cells from each HCV replicon were dispensed into 384-well plates. Compounds were dissolved in DMSO at a concentration of 10 mM and diluted in DMSO using an automated pipetting instrument. Three-fold serially diluted compounds were directly added to the cells using an automated instrument. […] Seventy-two hours later, cells were lysed and Renilla luciferase activity were quantified as recommended by the manufacturer (Promega-Madison, Wis.). Non-linear regression was performed to calculate EC50 values.

[3] = system: genotype 2a (JFH-1) stable HCV replicon in Huh-7-derived cells; assay: Stable subgenomic HCV replicon EC50, genotype 2a (Renilla luciferase); conditions: Hepatitis C virus, stable replicon genotype 2a, 72 h, read-out: EC50 2A RLUC
Description: as §1, §2, §3, §4

[4] = system: genotype 1b (Con1) stable HCV replicon in Huh-7-derived cells; assay: Stable subgenomic HCV replicon EC50, genotype 1b (Renilla luciferase); conditions: Hepatitis C virus, stable replicon genotype 1b, 72 h, read-out: EC50 1B RLUC
Description: as §1, §2, §3, §4

[5] = system: genotype 1b (Con1) wild type transient HCV replicon in Huh-7-derived cells; assay: Transient-transfected HCV replicon EC50, genotype 1b wild type; conditions: Hepatitis C virus, 72 h, read-out: EC50 1B WT
[6] = system: genotype 1a NS3/4a protease inhibitor resistant variant R155K transient HCV replicon in Huh-7-derived cells; assay: Transient-transfected HCV replicon EC50, genotype 1a R155K; conditions: Hepatitis C virus, 72 h, read-out: EC50 1A R155K, transient-transfected replicon genotype 1a R155K resistant variant, 72 h
[7] = system: genotype 4a (ED43) stable HCV replicon in Huh-7-derived cells; assay: Stable subgenomic HCV replicon EC50, genotype 4a (Renilla luciferase); conditions: Hepatitis C virus, 72 h, read-out: EC50 4A RLUC
Description: as §1, §2, §3, §4

[8] = system: genotype 1a (H77) wild type transient HCV replicon in Huh-7-derived cells; assay: Transient-transfected HCV replicon EC50, genotype 1a wild type; conditions: Hepatitis C virus, 72 h, read-out: EC50 1A WT
[9] = system: genotype 1a (H77) stable HCV replicon in Huh-7-derived cells; assay: Stable subgenomic HCV replicon EC50, genotype 1a (Renilla luciferase); conditions: Hepatitis C virus, stable replicon genotype 1a, 72 h, read-out: EC50 1A RLUC
Description: as §1, §2, §3, §4

[10] = transient-transfected replicon genotype 1b wild type
[11] = transient-transfected replicon genotype 1a wild type

Compound	EC50 [1] [nM]	EC50 [2] [nM]	EC50 [3] [nM]	EC50 [4] [nM]	EC50 [5] [nM]	EC50 [6] [nM]	EC50 [7] [nM]	EC50 [8] [nM]	EC50 [9] [nM]	EC50 [5, 10] [nM]	EC50 [8, 11] [nM]
COc1ccc2nc3c(nc2c1)O[C@H]1CN(C(=O)[C@H](C(C)(C)C)NC(=O)O[C@@H]2C[C@H]2CCCCC3)[C@H](C(=O)N[C@]2(C(=O)NS(=O)(=O)C3CC3)C[C@H]2C(F)F)[C@@H]1C [Example 19, (1aR,5S,8S,9S,10R,22aR)-5-tert-butyl-N-[(1R,2R)-1-[(cyclopropylsulfonyl)carbamoyl]-2-(difluoromethyl)cyclopropyl]-14-methoxy-9-methyl-3,6-dioxo-1,1a,3,4,5,6,9,10,18,19,20,21,22,22a-tetradecahydro-8H-7,10-methanocyclopropa[18,19][1,10,3,6]dioxadiazacyclononadecino[11,12-b]quinoxaline-8-carboxamide]	28	89	4.6	2.6	1.1	3.4	3.1	2.1	4		
CC[C@@H]1[C@@H]2CN(C(=O)[C@H](C3CCCC3)NC(=O)O[C@@H]3C[C@H]3CCCCCc3nc4ccc(OC)cc4nc3O2)[C@@H]1C(=O)N[C@]1(C(=O)NS(=O)(=O)C2CC2)C[C@H]1C(F)F [Example 15, (1aR,5S,8S,9S,10R,22aR)-5-cyclopentyl-N-[(1R,2R)-1-[(cyclopropylsulfonyl)carbamoyl]-2-(difluoromethyl)cyclopropyl]-9-ethyl-14-methoxy-3,6-dioxo-1,1a,3,4,5,6,9,10,18,19,20,21,22,22a-tetradecahydro-8H-7,10-methanocyclopropa[18,19][1,10,3,6]dioxadiazacyclononadecino[11,12-b]quinoxaline-8-carboxamide]	182	550	9.8	6.8	3	20	7.8	6.5	11		
CC[C@@H]1C[C@]1(NC(=O)[C@@H]1[C@H](C)[C@@H]2CN1C(=O)[C@H](C(C)(C)C)NC(=O)O[C@@H]1C[C@H]1CCCCCc1nc3ccc(OC)cc3nc1O2)C(=O)NS(=O)(=O)C1CC1 [Example 20, (1aR,5S,8S,9S,9S,10R,22aR)-5-tert-butyl-N-{(1R,2R)-1-[(cyclopropylsulfonyl)carbamoyl]-2-ethylcyclopropyl}-14-methoxy-9-methyl-3,6-dioxo-1,1a,3,4,5,6,9,10,18,19,20,21,22,22a-tetradecahydro-8H-7,10-methanocyclopropa[18,19][1,10,3,6]dioxadiazacyclononadecino[11,12-b]quinoxaline-8-carboxamide]	90	392	19	5.2	2.7	17	5.9	3.4	8.1		
CC[C@@H]1[C@@H]2CN(C(=O)[C@H](C(C)(C)C)NC(=O)O[C@@H]3C[C@H]3CCCCCc3nc4ccc(OC)cc4nc3O2)[C@@H]1C(=O)N[C@]1(C(=O)NS(=O)(=O)C2CC2)C[C@H]1CC [Example 3, (1aR,5S,8S,9S,10R,22aR)-5-tert-butyl-N-{(1R,2R)-1-[(cyclopropylsulfonyl)carbamoyl]-2-ethylcyclopropyl}-9-ethyl-14-methoxy-3,6-dioxo-1,1a,3,4,5,6,9,10,18,19,20,21,22,22a-tetradecahydro-8H-7,10-methanocyclopropa[18,19][1,10,3,6]dioxadiazacyclononadecino[11,12-b]quinoxaline-8-carboxamide]	128	546	28	9.8		32	10		11.7	3.5	6.6
COc1ccc2nc3c(nc2c1)O[C@H]1CN(C(=O)[C@H](C(C)(C)C)NC(=O)O[C@@H]2CCC[C@H]2CCCCC3)[C@H](C(=O)N[C@]2(C(=O)NS(=O)(=O)C3CC3)C[C@H]2C(F)F)[C@@H]1C [Example 28, (3aR,7S,10S,11S,12R,24aR)-7-tert-butyl-N-[(1R,2R)-1-[(cyclopropylsulfonyl)carbamoyl]-2-(difluoromethyl)cyclopropyl]-16-methoxy-11-methyl-5,8-dioxo-1,2,3,3a,5,6,7,8,11,12,20,21,22,23,24,24a-hexadecahydro-10H-9,12-methanocyclopenta[18,19][1,10,3,6]dioxadiazacyclononadecino[11,12-b]quinoxaline-10-carboxamide]	54	266	6.2	4.6		9	4.1		6.7	3.4	3
CC[C@@H]1[C@@H]2CN(C(=O)[C@H](C(C)(C)C)NC(=O)O[C@@]3(C)C[C@@H]3CCCCCc3nc4ccc(OC)cc4nc3O2)[C@@H]1C(=O)N[C@]1(C(=O)NS(=O)(=O)C2(C)CC2)C[C@H]1C(F)F [Example 8, (1aS,5S,8S,9S,10R,22aS)-5-tert-butyl-N-[(1R,2R)-2-(difluoromethyl)-1-{[(1-methylcyclopropyl)sulfonyl]carbamoyl}cyclopropyl]-9-ethyl-14-methoxy-1a-methyl-3,6-dioxo-1,1a,3,4,5,6,9,10,18,19,20,21,22,22a-tetradecahydro-8H-7,10-methanocyclopropa[18,19][1,10,3,6] dioxadiazacyclononadecino[11,12-b]quinoxaline-8-carboxamide]	89	465	20	8.6		28	13		16	4.8	8.8
CC[C@@H]1[C@@H]2CN(C(=O)[C@H](C(C)(C)C)NC(=O)O[C@@H]3CCC[C@H]3CCCCCc3nc4ccc(OC)cc4nc3O2)[C@@H]1C(=O)N[C@]1(C(=O)NS(=O)(=O)C2(C)CC2)C[C@H]1C(F)F [Example 6, (3aR,7S,10S,11S,12R,24aR)-7-tert-butyl-N-[(1R,2R)-2-(difluoromethyl)-1-{[(1-methylcyclopropyl)sulfonyl]carbamoyl}cyclopropyl]-11-ethyl-16-methoxy-5,8-dioxo-1,2,3,3a,5,6,7,8,11,12,20,21,22,23,24,24a-hexadecahydro-10H-9,12-methanocyclopenta[18,19][1,10,3,6] dioxadiazacyclononadecino[11,12-b]quinoxaline-10-carboxamide]	216	1360	34	36		58	34		35	11	26
COc1ccc2nc3c(nc2c1)O[C@H]1CN(C(=O)[C@H](C(C)(C)C)NC(=O)O[C@@]2(C)C[C@@H]2CCCCC3)[C@H](C(=O)N[C@]2(C(=O)NS(=O)(=O)C3(C)CC3)C[C@H]2C(F)F)[C@@H]1C [Example 45, (1aS,5S,8S,9S,10R,22aS)-5-tert-butyl-N-[(1R,2R)-2-(difluoromethyl)-1-{[(1-methylcyclopropyl)sulfonyl]carbamoyl}cyclopropyl]-14-methoxy-1a,9-dimethyl-3,6-dioxo-1,1a,3,4,5,6,9,10,18,19,20,21,22,22a-tetradecahydro-8H-7,10-methanocyclopropa[18,19][1,10,3,6]dioxadiazacyclononadecino[11,12-b]quinoxaline-8-carboxamide]	88	549	24	8.3		35	13		21	5.3	13
